According to ChEMBL document CHEMBL6109121, “Discovery of Novel Sulfonylurea NLRP3 Inflammasome Inhibitor for the Treatment of Multiple Inflammatory Diseases” (J Med Chem, 2025):
pIC50: −log10 of the molar value. Calls of active or inactive are those of the source. The calls are words filed in the database; no cut-off is given here.

What was measured:
[1] = Inhibition of NLRP3 inflammasome activation in human THP-1 cells assessed as inhibition of IL-1beta release; format: cell-based
BMDM [2] = test: Inhibition of AIM2 inflammasome activation in LPS/Poly dA:dT-stimulated male C57BL/6J mouse BMDM cells assessed as inhibition of IL-1beta secretion pretreated with LPS followed by compound addition for 4 hrs and measured after 4 hrs of Poly dA:dT addition by ELISA; format: cell-based; settings: time 8.0 hrs
BMDM [3] = test: Inhibition of NLRP3 inflammasome activation at initiation phase in LPS/ATP-stimulated male C57BL/6J mouse BMDM cells assessed as inhibition of IL6 secretion […] for 4 hrs followed by compound administration for 30 mins and measured after 1 hrs of ATP addition by ELISA; format: cell-based; settings: time 1.5 hrs
[4] = Oral bioavailability in male ICR (CD-1) mouse at 20 mg/kg by LC-MS/MS analysis; format: ADME, organism-based; settings: in vivo
[5] = AUClast in male ICR (CD-1) mouse at 5 mg/kg, iv by LC-MS/MS analysis; format: ADME, organism-based; settings: in vivo
Mus musculus [6] = test: Effect on TNF-alpha level in serum of LPS/ATP-induced acute peritonitis male C57BL/6J mouse model at 1 to 20 mg/kg, po preadministered with compound for 1 hrs followed by LPS addition for 2 hrs and measured 12 hrs post ATP administration by ELISA; format: functional, organism-based; settings: dose 1-20 mg/kg, time 13.0 hrs
Mus musculus [7] = test: (§1) Antidiabetic activity in HFD-fed STZ-induced diabetic kidney disease male C57BL/6J mouse model assessed as reduction in tubular basement membrane thickening in kidney at 20 mg/kg fed with high fat diet for 4 weeks followed by STZ administration for 5 days and measured 6 weeks post compound administration via gavage by histological analysis; format: functional, organism-based
Mus musculus [8] = test: Antidiabetic activity in HFD-fed STZ-induced diabetic kidney disease male C57BL/6J mouse model assessed as improvement of glucose tolerance at 20 mg/kg fed with high fat diet for 4 weeks followed by STZ administration for 5 days further administered with compound via gavage for 6 weeks and measured after 120 mins of glucose administration by OGTT; format: functional, organism-based; settings: time 60600.0 min
Mus musculus [9] = test: as §1, with “macrophage infiltration” for “tubular basement membrane thickening”, “F4/80 immunostaining based” for “histological”; format: functional, organism-based
Mus musculus [10] = test: Effect on HDL-C level in serum of HFD-fed STZ-induced diabetic kidney disease male C57BL/6J mouse model at 20 mg/kg fed with high fat diet for 4 weeks followed by STZ administration for 5 days and measured 6 weeks post compound administration via gavage; format: functional, organism-based
[11] = Drug uptake in gastrointestinal tract of male C57BL/6J mouse at 20 mg/kg, po administered as single dose and measured after 8 hrs by LC-MS/MS analysis; format: ADME, organism-based; settings: in vivo
Mus musculus [12] = test: Anti-colitis activity in DSS-induced acute ulcerative colitis male C57BL/6J mouse model assessed as reduction in depletion of goblet cells in colon at 0.2 to 5 mg/kg, po preadministered with DSS for 7 days followed by 3 days of drinking water and measured after 10 days of compound administration by H and E staining based analysis; format: functional, organism-based; settings: dose 0.2-5 mg/kg, time 10.0 day
Mus musculus [13] = test: Anti-colitis activity in DSS-induced acute ulcerative colitis male C57BL/6J mouse model assessed as reduction in histologic severity score at 0.2 to 5 mg/kg, po preadministered with DSS for 7 days followed by 3 days of drinking water and measured after 10 days of compound administration; format: functional, organism-based; settings: dose 0.2-5 mg/kg, time 10.0 day
Mus musculus [14] = test: Effect on TNF-alpha level in serum of DSS-induced acute ulcerative colitis male C57BL/6J mouse model at 0.2 to 5 mg/kg, po preadministered with DSS for 7 days followed by 3 days of drinking water and measured after 10 days of compound administration by ELISA; format: functional, organism-based; settings: dose 0.2-5 mg/kg, time 10.0 day

CN1CCC(N(C)S(=O)(=O)NC(=O)Nc2c3c(cc4c2CCC4)CCC3)CC1
pIC50 [1]: 7.64
inhibition (BMDM [2]): inactive
inhibition (BMDM [3]): inactive
bioavailability [4]: 99.6%
AUC(0-t) [5]: 14500 ng·h/mL
Activity (Mus musculus [6]): inactive
Activity (Mus musculus [7]): Active
Activity (Mus musculus [8]): inactive
Activity (Mus musculus [9]): Active
Activity (Mus musculus [10]): inactive
Drug uptake [11]: Active
Activity (Mus musculus [12]): Active
Activity (Mus musculus [13]): Active
Activity (Mus musculus [14]): inactive
